Assay results as given in patent US10385031B2, “Substituted piperazines as selective HDAC1,2 inhibitors” (Regenacy Pharmaceuticals, LLC, priority 2016, dated 2019).

Legend:
Type in all cases: biochemical
HDAC1 = HDAC1 (Homo sapiens (Human), UniProt Q13547); experiment: HDAC enzyme assay HDAC1
HDAC2 = HDAC2 (Homo sapiens (Human), UniProt Q92769); experiment: HDAC enzyme assay HDAC2
Experimental: Compounds for testing were diluted in DMSO to 50 fold the final concentration and a ten-point three-fold dilution series was made. The compounds were diluted in assay buffer (50 mM HEPES, pH 7.4, 100 mM KCl, 0.001% Tween-20, 0.05% BSA, 20 μM TCEP) to 6-fold their final concentration. The HDAC enzymes (purchased from BPS Biosciences) were diluted to 1.5-fold their final concentration in assay buffer. The tripeptide substrate and trypsin at 0.05 μM final concentration were diluted in assay buffer at 6-fold their final concentration. The final enzyme concentrations used in these assays were 3.3 ng/ml (HDAC1), 0.2 ng/ml (HDAC2) and 0.08 ng/ml (HDAC3). The final substrate concentrations used were 16 μM (HDAC1), 10 μM (HDAC2) and 17 μM (HDAC3).
Five μl of compounds and 20 μl of enzyme were added to wells of a black, opaque 384 well plate in duplicate. Enzyme and compound were incubated together at room temperature for 10 minutes. Five μl of substrate was added to each well, the plate was shaken for 60 seconds and placed into a Victor 2 microtiter plate reader. The development of fluorescence was monitored for 60 min and the linear rate of the reaction was calculated. The IC50 was determined using Graph Pad Prism by a four parameter curve fit.

HDAC3 = HDAC3 (Homo sapiens (Human), UniProt O15379); experiment: HDAC enzyme assay HDAC3
HDAC3, sequence (O15379 whole entry): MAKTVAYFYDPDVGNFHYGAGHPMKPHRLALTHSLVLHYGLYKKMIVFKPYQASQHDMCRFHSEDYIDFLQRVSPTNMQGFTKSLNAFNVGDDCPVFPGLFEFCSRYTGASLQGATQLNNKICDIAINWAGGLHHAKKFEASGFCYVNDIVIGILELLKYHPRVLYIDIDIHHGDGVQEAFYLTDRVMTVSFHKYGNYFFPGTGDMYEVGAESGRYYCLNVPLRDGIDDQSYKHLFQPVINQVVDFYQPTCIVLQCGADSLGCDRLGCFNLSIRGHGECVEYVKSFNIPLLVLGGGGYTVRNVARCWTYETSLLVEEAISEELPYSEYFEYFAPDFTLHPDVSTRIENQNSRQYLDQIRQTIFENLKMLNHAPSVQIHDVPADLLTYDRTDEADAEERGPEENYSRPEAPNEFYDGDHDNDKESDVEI
HDAC3, sequence (Q9Y618 395-489 partner): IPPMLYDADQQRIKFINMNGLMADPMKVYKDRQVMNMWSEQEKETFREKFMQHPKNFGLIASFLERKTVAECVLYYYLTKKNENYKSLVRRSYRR
Experimental: Compounds for testing were diluted in DMSO to 50 fold the final concentration and a ten-point three-fold dilution series was made. The compounds were diluted in assay buffer (50 mM HEPES, pH 7.4, 100 mM KCl, 0.001% Tween-20, 0.05% BSA, 20 μM TCEP) to 6-fold their final concentration. The HDAC enzymes (purchased from BPS Biosciences) were diluted to 1.5-fold their final concentration in assay buffer. The tripeptide substrate and trypsin at 0.05 μM final concentration were diluted in assay buffer at 6-fold their final concentration. The final enzyme concentrations used in these assays were 3.3 ng/ml (HDAC1), 0.2 ng/ml (HDAC2) and 0.08 ng/ml (HDAC3). The final substrate concentrations used were 16 μM (HDAC1), 10 μM (HDAC2) and 17 μM (HDAC3). Five μl of compounds and 20 μl of enzyme were added to wells of a black, opaque 384 well plate in duplicate. Enzyme and compound were incubated together at room temperature for 10 minutes. Five μl of substrate was added to each well, the plate was shaken for 60 seconds and placed into a Victor 2 microtiter plate reader. The development of fluorescence was monitored for 60 min and the linear rate of the reaction was calculated. The IC50 was determined using Graph Pad Prism by a four parameter curve fit. In Table 4 below, letter designations are defined as follows: […]

HDAC2, sequence (Q92769 whole entry): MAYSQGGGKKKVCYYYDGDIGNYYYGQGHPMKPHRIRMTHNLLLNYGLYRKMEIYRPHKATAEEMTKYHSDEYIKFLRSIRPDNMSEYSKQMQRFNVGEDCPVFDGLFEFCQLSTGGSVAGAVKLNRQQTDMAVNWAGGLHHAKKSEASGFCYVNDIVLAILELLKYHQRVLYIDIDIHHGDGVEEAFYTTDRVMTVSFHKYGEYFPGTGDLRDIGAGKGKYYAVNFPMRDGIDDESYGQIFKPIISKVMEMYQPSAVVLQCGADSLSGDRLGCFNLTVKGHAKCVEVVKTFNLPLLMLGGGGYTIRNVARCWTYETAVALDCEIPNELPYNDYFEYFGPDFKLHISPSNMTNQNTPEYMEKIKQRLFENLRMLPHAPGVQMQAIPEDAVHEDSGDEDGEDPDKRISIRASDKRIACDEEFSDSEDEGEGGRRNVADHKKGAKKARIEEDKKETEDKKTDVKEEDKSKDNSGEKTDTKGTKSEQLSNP
HDAC1, sequence (Q13547 whole entry): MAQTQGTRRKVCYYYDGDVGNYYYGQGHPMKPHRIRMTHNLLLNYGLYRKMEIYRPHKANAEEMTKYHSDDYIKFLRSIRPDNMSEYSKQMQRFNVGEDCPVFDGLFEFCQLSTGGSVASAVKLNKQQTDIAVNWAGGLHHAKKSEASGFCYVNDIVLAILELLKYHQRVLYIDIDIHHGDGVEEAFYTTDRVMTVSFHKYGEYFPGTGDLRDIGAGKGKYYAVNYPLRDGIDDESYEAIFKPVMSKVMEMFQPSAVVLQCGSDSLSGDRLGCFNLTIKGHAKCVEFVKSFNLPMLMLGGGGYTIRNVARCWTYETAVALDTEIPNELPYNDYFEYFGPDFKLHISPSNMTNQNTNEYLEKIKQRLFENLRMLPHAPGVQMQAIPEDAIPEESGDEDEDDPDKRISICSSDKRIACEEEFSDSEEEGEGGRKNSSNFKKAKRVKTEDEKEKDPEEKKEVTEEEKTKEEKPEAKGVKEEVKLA

SMILES	IC50 (HDAC1) [nM]	IC50 (HDAC2) [nM]	IC50 (HDAC3) [nM]
CN1CCN(c2ccc(C(=O)Nc3cc(-c4ccco4)ccc3N)cn2)CC1 [Compound 074]	< 10	10 to 500	10 to 500
CN1CCN(c2ccc(C(=O)Nc3cc(-c4ccoc4)ccc3N)cn2)CC1 [Compound 075]	< 10	10 to 500	10 to 500
Nc1ccc(-c2ccccc2F)cc1NC(=O)c1ccc(N2CCNCC2)nc1 [Compound 076]	< 10	10 to 500	10 to 500
Nc1ccc(-c2cccc(F)c2)cc1NC(=O)c1ccc(N2CCNCC2)nc1 [Compound 077]	10 to 500	10 to 500	10 to 500
Nc1ccc(-c2cc(F)cc(F)c2)cc1NC(=O)c1ccc(N2CCNCC2)nc1 [Compound 078]	> 500	10 to 500	> 500
CN1CCN(c2ccc(C(=O)Nc3cc(-c4ccccc4)ccc3N)nc2)CC1 [Compound 079]	< 10	10 to 500	10 to 500
CN1CCN(c2ccc(C(=O)Nc3cc(-c4cccs4)ccc3N)nc2)CC1 [Compound 080]	< 10	< 10	10 to 500
Nc1ccc(-c2ccccn2)cc1NC(=O)c1ccc(N2CCNCC2)cn1 [Compound 081]	10 to 500	10 to 500	> 500
CN1CCN(c2ccc(C(=O)Nc3cc(-c4ccco4)ccc3N)nc2)CC1 [Compound 082]	< 10	10 to 500	10 to 500
CN1CCN(c2ccc(C(=O)Nc3cc(-c4ccoc4)ccc3N)nc2)CC1 [Compound 083]	< 10	10 to 500	10 to 500
Nc1ccc(-c2cc(F)cc(F)c2)cc1NC(=O)c1ccc(N2CCNCC2)cn1 [Compound 084]	> 500	> 500	> 500
Nc1ccc(-c2ccccc2)cc1NC(=O)c1cnc(N2CCNCC2)cn1 [Compound 085]	< 10	10 to 500	10 to 500
CN1CCN(c2cnc(C(=O)Nc3cc(-c4cccs4)ccc3N)cn2)CC1 [Compound 086]	< 10	< 10	10 to 500
Nc1ccc(-c2ccco2)cc1NC(=O)c1cnc(N2CCNCC2)cn1 [Compound 087]	< 10	10 to 500	10 to 500
Nc1ccc(-c2ccoc2)cc1NC(=O)c1cnc(N2CCNCC2)cn1 [Compound 088]	< 10	10 to 500	10 to 500
Nc1ccc(-c2ccncc2)cc1NC(=O)c1cnc(N2CCNCC2)cn1 [Compound 089]	10 to 500	10 to 500	10 to 500
Nc1ccc(-c2ccc(F)cc2)cc1NC(=O)c1cnc(N2CCNCC2)cn1 [Compound 090]	< 10	10 to 500	10 to 500
